SMILES strings stand for the structures.

Experimental findings from patent US7816408B2, “Calcium receptor active compounds” (NPS Pharmaceuticals, Inc., priority 2002, dated 2010) are described below.

In one experiment the target is T1, human calcium receptor (Homo sapiens, UniProt P41180).
T1 construct: expressed in transfected cells; host or cells: HEK293
T1 sequence (P41180 20-1078): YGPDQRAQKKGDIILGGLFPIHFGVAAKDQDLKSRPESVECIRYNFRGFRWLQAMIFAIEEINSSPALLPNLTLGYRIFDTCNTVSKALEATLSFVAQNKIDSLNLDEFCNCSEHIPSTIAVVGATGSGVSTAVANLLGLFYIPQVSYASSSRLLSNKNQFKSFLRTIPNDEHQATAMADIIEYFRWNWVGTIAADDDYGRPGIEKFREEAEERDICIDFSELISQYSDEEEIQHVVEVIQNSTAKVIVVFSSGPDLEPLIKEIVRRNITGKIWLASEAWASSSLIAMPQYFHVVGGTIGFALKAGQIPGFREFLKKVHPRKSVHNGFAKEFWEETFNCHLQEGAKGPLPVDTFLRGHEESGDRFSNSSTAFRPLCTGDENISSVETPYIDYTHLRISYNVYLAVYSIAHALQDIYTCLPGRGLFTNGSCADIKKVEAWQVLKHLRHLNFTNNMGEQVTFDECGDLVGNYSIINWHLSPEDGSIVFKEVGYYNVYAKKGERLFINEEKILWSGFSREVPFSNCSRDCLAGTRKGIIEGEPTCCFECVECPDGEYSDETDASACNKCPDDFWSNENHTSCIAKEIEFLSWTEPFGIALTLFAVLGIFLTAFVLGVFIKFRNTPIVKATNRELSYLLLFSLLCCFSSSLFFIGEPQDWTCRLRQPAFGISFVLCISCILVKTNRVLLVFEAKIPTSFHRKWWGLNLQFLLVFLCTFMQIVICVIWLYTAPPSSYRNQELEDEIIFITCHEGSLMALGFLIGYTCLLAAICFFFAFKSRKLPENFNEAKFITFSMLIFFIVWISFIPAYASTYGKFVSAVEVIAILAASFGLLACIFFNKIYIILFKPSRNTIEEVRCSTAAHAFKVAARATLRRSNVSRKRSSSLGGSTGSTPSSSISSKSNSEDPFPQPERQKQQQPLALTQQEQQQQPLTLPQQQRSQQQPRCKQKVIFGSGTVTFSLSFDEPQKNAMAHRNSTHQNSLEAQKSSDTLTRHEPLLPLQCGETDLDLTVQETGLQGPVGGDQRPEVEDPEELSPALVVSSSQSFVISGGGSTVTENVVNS
Description: Activity on calcium receptors: fluo-3 fluorescence in HEK293 cells transfected with human calcium receptor gene. The format is cell-based. The settings on record: HEK293 cells transfected with plasmid pHuPCaR4.0 (human calcium receptor gene), loaded with fluo-3; 1 mM CaCl2, 1 mM MgCl2. In short, it runs like this:
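HEK293 cells transfected with human calcium receptor plasmid, loaded 1 h at 37 °C with about 5 μM fluo-3/AM. Cells then rinsed into HEPES-buffered HBSS with 1 mM CaCl2 and 1 mM MgCl2. Fluorescence read at 485/540 nm after compound addition.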

In the next experiment the test system is normal male SD rats. In words: Plasma Ca^2+ level of rats after single oral administration. The format is in vivo. The following applies: rat, mean of six animals; for Plasma Ca^2+ (mmol/l) 1 hr: 1 hr after single oral dose 30 μmol/kg; for Plasma Ca^2+ (mmol/l) 1 hr / Plasma Ca^2+ (mmol/l) 2 hr / Plasma Ca^2+ (mmol/l) 4 hr / Plasma Ca^2+ (mmol/l) 8 hr / Plasma Ca^2+ (mmol/l) 24 hr / Plasma Ca^2+ (mmol/l) 0 hr / Plasma Ca^2+ (mmol/l) 27 hr (footnote *b, 24 hr): vehicle 10% cyclodextrin (** 1% sodium-CMC); for Plasma Ca^2+ (mmol/l) 2 hr: 2 hr after single oral dose 30 μmol/kg; for Plasma Ca^2+ (mmol/l) 4 hr: 4 hr after single oral dose 30 μmol/kg; for Plasma Ca^2+ (mmol/l) 8 hr: 8 hr after single oral dose 30 μmol/kg; for Plasma Ca^2+ (mmol/l) 24 hr: 24 hr after single oral dose 30 μmol/kg; for Plasma Ca^2+ (mmol/l) 0 hr: 0 hr = before oral administration of 30 μmol/kg; for Plasma Ca^2+ (mmol/l) 27 hr (footnote *b, 24 hr): 27 hr after single oral dose 30 μmol/kg. How it is done:
The compound of the present invention was administered to rats so as to examine the effects of the compound on the plasma calcium ion level and serum PTH level. The test was performed by orally administering single dose of the compound of the invention or a control compound to normal male SD rats with six animals in each group.
To the group 1 was administered as a control a 10% cyclodextrin aqueous solution in a dose of 2.5 ml/kg. To the group 2 was administered as a reference (R)-N-(3-(2-chlorophenyl)propyl)-1-(3-methoxyphenyl)ethylamine (KRN568) dissolved in a 10% cyclodextrin aqueous solution in a dose of 30 μmol/kg. To the group 3 was administered the compound of the present invention dissolved in a 10% cyclodextrin aqueous solution in a dose of 30 μmol/kg, provided that 1% sodium-CMC aqueous solution was used in place of 10% cyclodextrin aqueous solution for the compounds marked with ** in Table 2.
Blood of each rat was collected from the tail tip before the administration and 30 minutes and 1, 2, 4, 8 and 24 hours thereafter (or at the time indicated in Table 2), and the plasma Ca^2+ level and serum PTH level were measured. The data of the serum PTH level were statistically processed by the multiple comparison analysis in accordance with Steel's calibration by using the group 1 as the control.

`C[C@@H](NCCC(=O)N(Cc1ccc(C(F)(F)F)cc1)Cc1ccc(Cl)c(Cl)c1)c1cccc2ccccc12` [Compound K-2264, N1-(3,4-dichlorobenzyl)-N1-[(4-trifluoromethyl)benzyl]-3-{[(1R)-1-(1-naphthyl)ethyl]-amino}propanamide]: the half-maximal effective concentration (EC50) – broadly, the concentration at which the effect is half-maximal – at human calcium receptor was 16 nM. Besides, in the experiment with normal male SD rats, the “Plasma Ca^2+ (mmol/l) 1 hr” value came out at 1.335 mmol/L, the “Plasma Ca^2+ (mmol/l) 2 hr” value was determined as 1.203 mmol/L, the “Plasma Ca^2+ (mmol/l) 4 hr” value was determined as 1.013 mmol/L and the “Plasma Ca^2+ (mmol/l) 8 hr” value turned out to be 0.998 mmol/L. Besides, the “Plasma Ca^2+ (mmol/l) 24 hr” value in the experiment on normal male SD rats is 1.182 mmol/L. Moreover, the “Plasma Ca^2+ (mmol/l) 31 hr (footnote *a, 48 hr column)” value with normal male SD rats (31 hr after single oral dose 30 μmol/kg, 1% sodium-CMC) was 1.240*^a mmol/l.

Consider `C[C@@H](NCCC(=O)N(Cc1ccc(Cl)c(Cl)c1)Cc1ccc(Cl)c(Cl)c1)c1cccc2ccccc12` [Compound K-2265, N1,N1-di(3,4-dichlorobenzyl)-3-{[(1R)-1-(1-naphthyl)ethyl]amino}propanamide], for which the 50% effective concentration (EC50) at human calcium receptor was found to be 61 nM. Further, in the experiment on normal male SD rats, the “Plasma Ca^2+ (mmol/l) 1 hr” value stood at 1.430 mmol/L, the “Plasma Ca^2+ (mmol/l) 2 hr” value came out at 1.363 mmol/L, the “Plasma Ca^2+ (mmol/l) 4 hr” value was determined as 1.260 mmol/L and the “Plasma Ca^2+ (mmol/l) 8 hr” value is 1.218 mmol/L.

For the compound `C[C@@H](NCCC(=O)N(Cc1ccc(Cl)cc1)Cc1ccc(C(F)(F)F)cc1)c1cccc2ccccc12` [Compound K-2266, N1-(4-chlorobenzyl)-N1-[(4-trifluoromethyl)benzyl]-3-{[(1R)-1-(1-naphthyl)ethyl]amino}propanamide], on human calcium receptor, the EC50 was 36 nM. In the experiment with normal male SD rats, the “Plasma Ca^2+ (mmol/l) 0 hr” value came out at 1.417 mmol/L, the “Plasma Ca^2+ (mmol/l) 1 hr” value was 1.368 mmol/L, the “Plasma Ca^2+ (mmol/l) 2 hr” value came to 1.222 mmol/L and the “Plasma Ca^2+ (mmol/l) 4 hr” value worked out at 1.065 mmol/L. For the same compound, in the experiment with normal male SD rats, the “Plasma Ca^2+ (mmol/l) 8 hr” value stood at 1.045 mmol/L and the “Plasma Ca^2+ (mmol/l) 24 hr” value was 1.370 mmol/L.

For the compound `C[C@@H](NCCC(=O)N(Cc1ccc(Cl)cc1)Cc1ccc(Cl)c(Cl)c1)c1cccc2ccccc12` [Compound K-2267, N1-(4-chlorobenzyl)-N1-(3,4-dichlorobenzyl)-3-{[(1R)-1-(1-naphthyl)ethyl]amino}propanamide], at human calcium receptor, the EC50 turned out to be 14 nM. Moreover, in the experiment on normal male SD rats, the “Plasma Ca^2+ (mmol/l) 1 hr” value came to 1.347 mmol/L, the “Plasma Ca^2+ (mmol/l) 2 hr” value was 1.212 mmol/L, the “Plasma Ca^2+ (mmol/l) 4 hr” value amounted to 1.027 mmol/L and the “Plasma Ca^2+ (mmol/l) 8 hr” value turned out to be 1.022 mmol/L. Further, the “Plasma Ca^2+ (mmol/l) 24 hr” value in the experiment on normal male SD rats turned out to be 1.312 mmol/L.

In the case of `COc1cccc(SCCCCN[C@H](C)c2cccc3ccccc23)c1` [Compound K-2269, N-{4-[(3-methoxyphenyl)thio]butyl}-N-[(1R)-1-(1-naphthyl)ethyl]amine], the EC50 on human calcium receptor amounted to 71 nM. In addition, in the experiment with normal male SD rats, the “Plasma Ca^2+ (mmol/l) 1 hr” value came out at 1.152 mmol/L, the “Plasma Ca^2+ (mmol/l) 2 hr” value was found to be 1.140 mmol/L, the “Plasma Ca^2+ (mmol/l) 4 hr” value came out at 1.097 mmol/L and the “Plasma Ca^2+ (mmol/l) 8 hr” value came out at 1.173 mmol/L.

Take `COc1ccc(CN(Cc2ccc(OC)cc2)C(=O)CCN[C@H](C)c2cccc3ccccc23)cc1` [Compound K-2270, N1,N1-di(4-methoxybenzyl)-3-{[(1R)-1-(1-naphthyl)ethyl]amino}propanamide]: the EC50 on human calcium receptor amounted to 140 nM. Besides, in the experiment on normal male SD rats, the “Plasma Ca^2+ (mmol/l) 1 hr” value was found to be 1.355 mmol/L, the “Plasma Ca^2+ (mmol/l) 2 hr” value amounted to 1.238 mmol/L, the “Plasma Ca^2+ (mmol/l) 4 hr” value came out at 1.088 mmol/L and the “Plasma Ca^2+ (mmol/l) 8 hr” value amounted to 1.175 mmol/L.

On to `CCOc1ccc2sc(SCCCCN[C@H](C)c3cccc4ccccc34)nc2c1` [Compound K-2271], for which the EC50 at human calcium receptor is 140 nM. Further, in the experiment on normal male SD rats, the “Plasma Ca^2+ (mmol/l) 0 hr” value turned out to be 1.428 mmol/L, the “Plasma Ca^2+ (mmol/l) 1 hr” value came out at 1.278 mmol/L, the “Plasma Ca^2+ (mmol/l) 2 hr” value stood at 1.227 mmol/L and the “Plasma Ca^2+ (mmol/l) 4 hr” value is 1.128 mmol/L. Moreover, the “Plasma Ca^2+ (mmol/l) 8 hr” value with normal male SD rats came to 1.197 mmol/L.

As to `C[C@@H](NCCC(=O)N(Cc1ccc(OC(F)(F)F)cc1)Cc1ccc(Cl)c(Cl)c1)c1cccc2ccccc12` [Compound K-2272, N1-(3,4-dichlorobenzyl)-N1-[4-(trifluoromethoxy)benzyl)-3-{[(1R)-1-(1-naphthyl)ethyl]-amino}propanamide], at human calcium receptor, the EC50 came out at 52 nM. Further, in the experiment with normal male SD rats, the “Plasma Ca^2+ (mmol/l) 1 hr” value is 1.382 mmol/L, the “Plasma Ca^2+ (mmol/l) 2 hr” value came out at 1.237 mmol/L, the “Plasma Ca^2+ (mmol/l) 4 hr” value is 1.075 mmol/L and the “Plasma Ca^2+ (mmol/l) 8 hr” value amounted to 1.022 mmol/L. In the experiment on normal male SD rats, the “Plasma Ca^2+ (mmol/l) 24 hr” value was found to be 1.240 mmol/L.

Take `COc1cccc(SCCCCCN[C@H](C)c2cccc3ccccc23)c1` [Compound K-2279, N-{[5-(3-methoxyphenyl)thio]pentyl}N-[(1R)-1-(1-naphthyl)ethyl]amine]: at human calcium receptor, the EC50 was determined as 630 nM. For the same compound, in the experiment on normal male SD rats, the “Plasma Ca^2+ (mmol/l) 0 hr” value stood at 1.443 mmol/L, the “Plasma Ca^2+ (mmol/l) 1 hr” value was 1.200 mmol/L, the “Plasma Ca^2+ (mmol/l) 2 hr” value was 1.155 mmol/L and the “Plasma Ca^2+ (mmol/l) 4 hr” value was determined as 1.130 mmol/L. Also, in the experiment on normal male SD rats, the “Plasma Ca^2+ (mmol/l) 8 hr” value stood at 1.210 mmol/L and the “Plasma Ca^2+ (mmol/l) 24 hr” value was 1.445 mmol/L.

As to `COc1ccc(SCCCCCN[C@H](C)c2cccc3ccccc23)cc1` [Compound K-2280], at human calcium receptor, the EC50 stood at 270 nM. Also, in the experiment on normal male SD rats, the “Plasma Ca^2+ (mmol/l) 0 hr” value was 1.443 mmol/L, the “Plasma Ca^2+ (mmol/l) 1 hr” value was found to be 1.233 mmol/L, the “Plasma Ca^2+ (mmol/l) 2 hr” value was 1.167 mmol/L and the “Plasma Ca^2+ (mmol/l) 4 hr” value is 1.077 mmol/L. Also, in the experiment on normal male SD rats, the “Plasma Ca^2+ (mmol/l) 8 hr” value was found to be 1.142 mmol/L and the “Plasma Ca^2+ (mmol/l) 24 hr” value stood at 1.405 mmol/L.

Turning to `C[C@@H](NCCCCSc1cc(Cl)c(Cl)cc1Cl)c1cccc2ccccc12` [Compound K-2281, N-[(1R)-1-(1-naphthyl)ethyl]-N-{4-[(2,4,5-trichlorophenyl)thio]butyl}amine], the half-maximal effective concentration (EC50) at human calcium receptor turned out to be 430 nM. For the same compound, in the experiment with normal male SD rats, the “Plasma Ca^2+ (mmol/l) 1 hr” value was determined as 1.380 mmol/L, the “Plasma Ca^2+ (mmol/l) 2 hr” value worked out at 1.245 mmol/L, the “Plasma Ca^2+ (mmol/l) 4 hr” value came out at 1.103 mmol/L and the “Plasma Ca^2+ (mmol/l) 8 hr” value amounted to 0.993 mmol/L. In the experiment with normal male SD rats, the “Plasma Ca^2+ (mmol/l) 27 hr (footnote *b, 24 hr)” value is on record as 1.230*^b mmol/l.

In the case of `C[C@@H](NCCCCCSc1cc(Cl)c(Cl)cc1Cl)c1cccc2ccccc12` [Compound K-2282, N-[(1R)-1-(1-naphthyl)ethyl]-N-{5-[(2,4,5-trichlorophenyl)thio]pentyl}amine], the EC50 at human calcium receptor was determined as 340 nM. Moreover, in the experiment with normal male SD rats, the “Plasma Ca^2+ (mmol/l) 1 hr” value worked out at 1.425 mmol/L, the “Plasma Ca^2+ (mmol/l) 2 hr” value was 1.298 mmol/L, the “Plasma Ca^2+ (mmol/l) 4 hr” value came out at 1.168 mmol/L and the “Plasma Ca^2+ (mmol/l) 8 hr” value turned out to be 1.078 mmol/L. Besides, the “Plasma Ca^2+ (mmol/l) 27 hr (footnote *b, 24 hr)” value in the experiment on normal male SD rats is 1.230*^b mmol/l.
